The conditions of series [1]: for Solubility in seawater, Molecular weight conversion / Solubility in seawater, Dissolved zinc-copper: pH = 8.2. As for the experimental part: Formulation of artificial seawater (g/L)
0.1 g of the sample was added in 500 mL of artificial seawater, which was then stirred at 20° C. and 30° C. for 4 hours and filtered, and the filtrate was subjected to atomic absorption analysis.

In series [2] the test system is Aspergillus niger ATCC 6275. Put plainly: Antibacterial test (MIC), agar medium. The conditions noted are these: Potato dextrose agar medium, 30° C., 7 days.
Series [3] concerns Escherichia coli NBRC 3972. The conditions noted are these: for Minimum growth inhibitive concentration of bacteria, Escherichia coli: NB agar medium with lactose, 30° C., 3 days. How it is done: (§1) Preparation of a sample: the extract was dissolved in dimethylsulfoxide, to which an aqueous 0.1 W % Tween 80 was added to make a sample solution.
NB agar medium to which lactose is added, 30° C., 3 days

In series [4] the test system is Malassezia furfur NBRC 0656. The conditions noted are these: YM agar medium with olive oil, 30° C., 6 days. How it is done: as §1
YM agar medium to which olive oil is added, 30° C., 6 days

The test system of series [5] is Staphylococcus aureus NBRC 12732. The conditions noted are these: for Minimum growth inhibitive concentration of bacteria, Staphylococcus aureus: Soybean casein digest agar medium, 30° C., 5 days. As for the experimental part: as §1
Soybean casein digest agar medium, 30° C., 5 days

Series [6] is described as follows: Weathering of polyethylene resin molded article (color difference, yellow index). The conditions noted are these: for ΔE* / ΔYI: Sample after hung in the sun versus before; for degree of coloring: after hung in the sun, ranking. The series is classed as physicochemical. As for the experimental part:
Then, the resin materials were respectively applied to a sheet having a size of 200 mm×200 mm×1.1 mm by press molding in the condition of 140° C. and 200 kgf/cm^2. Two test pieces of 30 mm×110 mm were cut from each of the four sheets and hung in the sun from 8 a.m. to 5 p.m. for five fine weather days selected from among the term between Sep. 15 and […].

For series [7] the following is noted: 2% by weight in purified water, well-lighted room, one week. The source says: (§2) The pyrithione complex compound represented by the formula (I) is used as an antidandruff agent to be formulated in hair-care products such as shampoos and hair rinses like conventional zinc pyrithione. […] Also, the zinc pyrithione/zinc oxide complex compound and zinc pyrithione were respectively added to purified water in an amount of 2% by weight and each suspension was allowed to stand in a well-lighted room to observe the degree of coloration of the suspension.

The test system of series [8] is Bacillus subtilis IFO 3215. The series is described as follows: Antibacterial test (MIC), shake culture. The series is classed as cell-based. The conditions noted are these: 24 hours. How it is done: (§3) Preparation of a sample: the white powder is added in a fixed concentration.
(§4) Culture condition: 28° C., 24 hours, shake culture

For series [9], the system named is Escherichia coli IFO 3972. Put plainly: Antibacterial test (MIC), shake culture. The series is classed as cell-based. The conditions noted are these: 24 hours. How it is done: as §3, §4
Series [10] has as its system Pseudomonas aeruginosa IAM 1514. The series is described as follows: Antibacterial test (MIC), alone and combined with isothiazolone preparation. The series is classed as cell-based. The conditions noted are these: Table 3, Example 16. As for the experimental part:
as §3, §4

A short description of series [11]: Stability in DMSO (coloring of filtrate). Format: physicochemical. How it is done:
2 g of each of these four compounds was added in 10 g of DMSO, allowed to stand at ambient temperature in a laboratory and filtered, to examine coloring of the filtrate. Then, the filter residue was again added to 10 g of DMSO to carry out the same operation.

A further series concerns oculus membrane mucosa. The conditions noted are these: aqueous 2.0 W % suspension instilled in the eye.
Text: as §2

The mark [12] stands for this setting: Sample after hung in the sun, five days.
Where [13] appears, read: Sample before hung in the sun, 0.15 parts in LDPE.

Read-outs that look alike come from different tables or passages of the source.

`On1ccccc1=S.On1ccccc1=S.[Cu]` [Copper pyrithione]: the “Solubility in seawater, Molecular weight conversion” value stood at 0.1 µg/mL in [1] (20° C.) and 0.2 µg/mL in [1] (30° C.). Also, in series [2], the “Minimum growth inhibitive concentration of bacteria, Aspergillus niger” value is 20 mg/L.
As to `[O-2].[O-][n+]1ccccc1S.[O-][n+]1ccccc1S.[O-][n+]1ccccc1S.[O-][n+]1ccccc1S.[O-][n+]1ccccc1S.[O-][n+]1ccccc1S.[Zn+2].[Zn+2].[Zn+2].[Zn+2]` [Example 3 Chloroform extract, zinc pyrithione-zinc oxide complex compound], the “Minimum growth inhibitive concentration of bacteria, Escherichia coli” value in [3] is 10 mg/L. Further, the “antibacterial ability to Escherichia coli” value in series [3] (compared with zinc pyrithione) is recorded as “higher”. In [4], the “Minimum growth inhibitive concentration of bacteria, Malassezia furfur” value was 5 mg/L. In addition, the “Minimum growth inhibitive concentration of bacteria, Staphylococcus aureus” value in [5] is 1.25 mg/L. In series [5] (compared with zinc pyrithione), the “antibacterial ability to Staphylococcus aureus” value was “higher”. Further, in series [1] (20° C.), the “Solubility in seawater, Dissolved zinc-copper” value is recorded as 0.82 (Zn) mg/L and the “Solubility in seawater, Molecular weight conversion” value turned out to be 3.2 µg/mL. Also, the “Solubility in seawater, Molecular weight conversion” value in [1] (30° C.) was 4.3 µg/mL. Moreover, in series [6], the “ΔE*” value is reported as 11.52, the ΔYI was found to be 19.93 and the degree of coloring entry is given as “smaller”. Moreover, in series [6] (setting [12]), the “L*” value came out at 81.92, the YI is 21.52, the “a*” value was −3.05 and the “b*” value is listed as 11.52. Also, in [6] (setting [13]), the “L*” value is reported as 84.78, the YI was found to be 1.58, the “a*” value is reported as −0.28 and the “b*” value is 0.71. Besides, in series [7], the “degree of coloration of the suspension” value is reported as “slightly yellowed”.
Turning to `[Cu+2].[Cu+2].[Cu+2].[O-][n+]1ccccc1[S-].[O-][n+]1ccccc1[S-].[O-][n+]1ccccc1[S-].[O-][n+]1ccccc1[S-].[O-][n+]1ccccc1[S-].[O-][n+]1ccccc1[S-].[O]=[Cu]` [Example 9 Chloroform extract, copper pyrithione/copper (II) oxide complex compound], in series [1] (20° C.), the “Solubility in seawater, Dissolved zinc-copper” value is on record as 0.14 (Cu) mg/L and the “Solubility in seawater, Molecular weight conversion” value was 0.6 µg/mL. Further, in series [1] (30° C.), the “Solubility in seawater, Dissolved zinc-copper” value is recorded as 0.15 (Cu) mg/L and the “Solubility in seawater, Molecular weight conversion” value is 0.6 µg/mL. Further, the solubility in seawater entry in series [1] (as stated in the description) is given as “about 0.6 ppm”. The “Minimum growth inhibitive concentration of bacteria, Aspergillus niger” value in [2] is 5 mg/L.
Regarding Zinc pyrithione, the “Minimum growth inhibitive concentration of bacteria, Bacillus subtilis” value in series [8] (Table 1, Example 14, 28° C.) is 2.5 mg/L; in [8] (Table 2, Example 15, 28° C.), 1 mg/L. Also, the “Minimum growth inhibitive concentration of bacteria, Escherichia coli” value in series [9] (Table 1, Example 14, 28° C.) is 5 mg/L; in series [9] (Table 2, Example 15, 28° C.), 2.5 mg/L; in [3], 20 mg/L. In series [10], the “Minimum growth inhibitive concentration of bacteria, Pseudomonas aeruginosa” value is more than 1000 mg/L. In series [4], the “Minimum growth inhibitive concentration of bacteria, Malassezia furfur” value is reported as 5 mg/L. For the same compound, in series [5], the “Minimum growth inhibitive concentration of bacteria, Staphylococcus aureus” value amounted to 2.5 mg/L. Moreover, the “Solubility in seawater, Molecular weight conversion” value in series [1] (20° C.) came to 6.1 µg/mL; in [1] (30° C.), 7.4 µg/mL. Also, in series [11] (2 g in 10 g of DMSO, ambient temperature), the “coloring of the first filtrate” value is “brown appearance”. The “coloring of the second filtrate” value in series [11] (filter residue again added to 10 g of DMSO) was “brown appearance”. Also, in series [6], the “ΔE*” value was found to be 20.18. Moreover, the ΔYI in series [6] is reported as 34.00. The “L*” value in series [6] (setting [12]) is reported as 82.16; in series [6] (setting [13]), 86.87. The YI in series [6] (setting [12]) was 34.70; in series [6] (setting [13]), 0.71. For the same compound, the entries for the “a*” value in series [6] (setting [12]) and in series [6] (setting [13]) were −5.00 and −0.79, respectively. Moreover, the “b*” value was 19.68 in [6] (setting [12]) and 0.51 in series [6] (setting [13]). Further, the degree of coloring result in series [6] is on record as “the largest”. In [7], the “degree of coloration of the suspension” value is “colored in yellow”. Moreover, in the series with oculus membrane mucosa, the “primary irritation (criterion by the Draize method)” value was “slightly irritant”.

The values above are taken from US7659397B2, “Pyrithione complex compound, process for producing the same and use thereof” (priority 2003, dated 2010).
